What was measured:
Format in all cases: cell-based
IKZF2 = molecular target: T1, IKZF2 (Homo sapiens, UniProt Q96SW2+Q9UKS7); experiment: Western-blot assay, substrate protein degradation in hPBMCs: IKZF2; settings: for IKZF2 substrate protein remaining %: compounds at 50 nM and 500 nM, 24 hours; for substrate protein remaining % IKZF2: 24 hours of compound treatment, 50 nM and 500 nM
T1 construct: effects of the compounds of the present disclosure on the expression of target proteins in cells; endogenous in cells; host or cells: human PBMCs (hPBMCs)
T1 sequence (Q9UKS7 whole entry): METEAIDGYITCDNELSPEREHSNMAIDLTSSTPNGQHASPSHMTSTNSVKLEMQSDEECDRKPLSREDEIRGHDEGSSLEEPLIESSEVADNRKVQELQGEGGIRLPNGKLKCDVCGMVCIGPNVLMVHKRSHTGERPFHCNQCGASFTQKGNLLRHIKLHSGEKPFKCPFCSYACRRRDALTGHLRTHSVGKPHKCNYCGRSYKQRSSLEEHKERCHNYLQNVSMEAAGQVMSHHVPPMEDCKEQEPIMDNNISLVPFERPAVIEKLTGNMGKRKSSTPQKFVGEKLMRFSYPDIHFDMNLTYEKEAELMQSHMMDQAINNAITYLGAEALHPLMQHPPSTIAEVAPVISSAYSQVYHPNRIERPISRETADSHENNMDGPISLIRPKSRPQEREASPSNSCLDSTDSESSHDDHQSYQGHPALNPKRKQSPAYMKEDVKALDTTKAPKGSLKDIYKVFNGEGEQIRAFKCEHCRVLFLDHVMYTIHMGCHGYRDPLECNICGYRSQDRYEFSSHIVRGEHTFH
T1 sequence (Q96SW2 whole entry): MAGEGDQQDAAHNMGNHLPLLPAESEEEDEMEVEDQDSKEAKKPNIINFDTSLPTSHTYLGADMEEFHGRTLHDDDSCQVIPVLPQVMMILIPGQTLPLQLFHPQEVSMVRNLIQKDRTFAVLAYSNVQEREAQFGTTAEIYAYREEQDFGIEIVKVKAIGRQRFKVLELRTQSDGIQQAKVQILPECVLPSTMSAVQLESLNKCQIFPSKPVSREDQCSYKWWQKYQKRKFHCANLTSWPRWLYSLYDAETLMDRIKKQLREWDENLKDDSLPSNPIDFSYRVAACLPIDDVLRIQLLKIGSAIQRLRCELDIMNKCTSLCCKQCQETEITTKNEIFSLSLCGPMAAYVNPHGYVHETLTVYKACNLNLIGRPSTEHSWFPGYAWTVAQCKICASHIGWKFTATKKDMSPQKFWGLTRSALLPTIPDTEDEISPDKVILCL
T1 sequence (Q16531 whole entry partner): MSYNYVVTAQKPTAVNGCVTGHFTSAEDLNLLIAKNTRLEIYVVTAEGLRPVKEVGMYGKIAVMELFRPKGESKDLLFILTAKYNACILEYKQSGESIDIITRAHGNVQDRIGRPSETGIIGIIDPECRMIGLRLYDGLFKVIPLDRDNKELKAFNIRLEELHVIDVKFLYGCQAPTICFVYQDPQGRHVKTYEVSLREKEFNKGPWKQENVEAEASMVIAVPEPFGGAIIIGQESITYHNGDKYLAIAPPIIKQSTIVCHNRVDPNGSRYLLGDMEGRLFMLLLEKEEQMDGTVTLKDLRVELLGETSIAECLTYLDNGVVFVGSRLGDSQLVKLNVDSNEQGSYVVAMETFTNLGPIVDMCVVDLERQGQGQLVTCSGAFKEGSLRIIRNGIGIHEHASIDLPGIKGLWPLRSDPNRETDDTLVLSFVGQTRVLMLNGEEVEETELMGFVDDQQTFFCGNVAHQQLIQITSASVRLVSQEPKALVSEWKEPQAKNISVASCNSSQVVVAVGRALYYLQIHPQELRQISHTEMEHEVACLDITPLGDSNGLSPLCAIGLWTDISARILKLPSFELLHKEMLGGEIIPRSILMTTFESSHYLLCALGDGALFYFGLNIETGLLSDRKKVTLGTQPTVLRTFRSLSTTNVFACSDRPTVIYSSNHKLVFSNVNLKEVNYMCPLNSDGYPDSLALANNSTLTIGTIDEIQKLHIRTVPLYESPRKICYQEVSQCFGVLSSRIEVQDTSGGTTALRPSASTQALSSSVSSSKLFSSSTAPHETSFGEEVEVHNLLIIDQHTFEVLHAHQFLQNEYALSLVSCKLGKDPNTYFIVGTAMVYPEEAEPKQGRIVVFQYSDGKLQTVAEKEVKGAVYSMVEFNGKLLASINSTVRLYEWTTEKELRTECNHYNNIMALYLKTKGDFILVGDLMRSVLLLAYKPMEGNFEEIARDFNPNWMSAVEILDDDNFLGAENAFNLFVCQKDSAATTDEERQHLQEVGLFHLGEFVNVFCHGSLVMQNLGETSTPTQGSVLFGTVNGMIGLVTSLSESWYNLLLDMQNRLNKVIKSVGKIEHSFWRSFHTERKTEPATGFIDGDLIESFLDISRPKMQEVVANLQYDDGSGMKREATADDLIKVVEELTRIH

GSPT1 = molecular target: T2, GSPT1 (Homo sapiens, UniProt P15170+Q96SW2); experiment: Western-blot assay, substrate protein degradation in hPBMCs: GSPT1; settings: for GSPT1 substrate protein remaining %: compounds at 50 nM and 500 nM, 24 hours; for substrate protein remaining % GSPT1: 24 hours of compound treatment, 50 nM and 500 nM
T2 construct: effects of the compounds of the present disclosure on the expression of target proteins in cells; endogenous in cells; host or cells: human PBMCs (hPBMCs)
T2 sequence (P15170 whole entry): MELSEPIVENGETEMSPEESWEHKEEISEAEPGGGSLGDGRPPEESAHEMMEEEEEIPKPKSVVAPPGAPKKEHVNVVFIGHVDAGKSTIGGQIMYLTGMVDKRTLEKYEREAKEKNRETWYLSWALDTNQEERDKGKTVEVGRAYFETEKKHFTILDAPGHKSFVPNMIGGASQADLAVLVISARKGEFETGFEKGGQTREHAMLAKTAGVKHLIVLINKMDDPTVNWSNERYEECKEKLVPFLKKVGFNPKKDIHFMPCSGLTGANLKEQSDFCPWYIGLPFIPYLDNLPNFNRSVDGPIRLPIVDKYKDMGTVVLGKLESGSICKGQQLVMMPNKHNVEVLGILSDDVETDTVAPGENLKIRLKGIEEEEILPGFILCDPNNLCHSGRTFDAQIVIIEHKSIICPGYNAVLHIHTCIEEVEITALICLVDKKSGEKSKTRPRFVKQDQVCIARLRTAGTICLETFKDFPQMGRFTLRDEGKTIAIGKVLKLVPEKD
T2 sequence (Q96SW2 whole entry): as the sequence (Q96SW2 whole entry) above
T2 sequence (Q16531 whole entry partner): as the sequence (Q16531 whole entry partner) above

WEE1 = molecular target: T3, WEE1 (Homo sapiens, UniProt P30291+Q96SW2); experiment: Western-blot assay, substrate protein degradation in hPBMCs: WEE1; settings: for WEE1 substrate protein remaining %: compounds at 50 nM and 500 nM, 24 hours; for substrate protein remaining % WEE1: 24 hours of compound treatment, 50 nM and 500 nM
T3 construct: effects of the compounds of the present disclosure on the expression of target proteins in cells; endogenous in cells; host or cells: human PBMCs (hPBMCs)
T3 sequence (P30291 whole entry): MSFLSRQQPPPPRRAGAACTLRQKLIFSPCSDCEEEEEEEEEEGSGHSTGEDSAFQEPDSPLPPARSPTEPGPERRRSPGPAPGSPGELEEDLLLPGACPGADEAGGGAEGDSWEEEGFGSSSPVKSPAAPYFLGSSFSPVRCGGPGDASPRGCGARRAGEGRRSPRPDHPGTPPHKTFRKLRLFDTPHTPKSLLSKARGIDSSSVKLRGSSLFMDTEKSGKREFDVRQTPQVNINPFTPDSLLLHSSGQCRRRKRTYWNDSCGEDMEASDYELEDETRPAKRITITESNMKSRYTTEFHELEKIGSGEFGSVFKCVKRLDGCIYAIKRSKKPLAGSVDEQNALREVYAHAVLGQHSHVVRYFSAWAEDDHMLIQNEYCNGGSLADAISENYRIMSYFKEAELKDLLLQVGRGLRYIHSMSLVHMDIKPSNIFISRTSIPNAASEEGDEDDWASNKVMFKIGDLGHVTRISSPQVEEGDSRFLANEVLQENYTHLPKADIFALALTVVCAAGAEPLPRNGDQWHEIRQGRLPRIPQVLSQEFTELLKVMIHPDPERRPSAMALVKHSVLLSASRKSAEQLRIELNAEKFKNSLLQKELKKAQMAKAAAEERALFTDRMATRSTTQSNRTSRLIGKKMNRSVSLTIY
T3 sequence (Q96SW2 whole entry): as the sequence (Q96SW2 whole entry) above
T3 sequence (Q16531 whole entry partner): as the sequence (Q16531 whole entry partner) above

IKZF3 = molecular target: T4, IKZF3 (Homo sapiens, UniProt Q96SW2+Q9UKT9); experiment: Western-blot assay, substrate protein degradation in hPBMCs: IKZF3; settings: for IKZF3 substrate protein remaining %: compounds at 50 nM and 500 nM, 24 hours; for substrate protein remaining % IKZF3: 24 hours of compound treatment, 50 nM and 500 nM
T4 construct: effects of the compounds of the present disclosure on the expression of target proteins in cells; endogenous in cells; host or cells: human PBMCs (hPBMCs)

CK1α = molecular target: T5, CK1α (Homo sapiens, UniProt P48729+Q96SW2); experiment: Western-blot assay, substrate protein degradation in hPBMCs: CK1α; settings: for CK1α substrate protein remaining %: compounds at 50 nM and 500 nM, 24 hours; for substrate protein remaining % CK1α: 24 hours of compound treatment, 50 nM and 500 nM
T5 construct: effects of the compounds of the present disclosure on the expression of target proteins in cells; endogenous in cells; host or cells: human PBMCs (hPBMCs)
T5 sequence (P48729 whole entry): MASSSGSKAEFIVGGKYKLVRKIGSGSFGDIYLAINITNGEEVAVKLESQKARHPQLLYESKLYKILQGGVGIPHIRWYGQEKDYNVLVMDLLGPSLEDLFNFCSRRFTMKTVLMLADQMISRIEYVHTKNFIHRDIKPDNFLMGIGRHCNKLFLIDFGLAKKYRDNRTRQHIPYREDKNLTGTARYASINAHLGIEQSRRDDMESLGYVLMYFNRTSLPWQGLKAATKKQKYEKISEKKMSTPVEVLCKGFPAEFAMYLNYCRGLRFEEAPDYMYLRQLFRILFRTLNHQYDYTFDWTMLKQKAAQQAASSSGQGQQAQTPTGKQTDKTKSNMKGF
T5 sequence (Q96SW2 whole entry): as the sequence (Q96SW2 whole entry) above
T5 sequence (Q16531 whole entry partner): as the sequence (Q16531 whole entry partner) above

IKZF1 = molecular target: T6, IKZF1 (Homo sapiens, UniProt Q13422+Q96SW2); experiment: Western-blot assay, substrate protein degradation in hPBMCs: IKZF1; settings: for IKZF1 substrate protein remaining %: compounds at 50 nM and 500 nM, 24 hours; for substrate protein remaining % IKZF1: 24 hours of compound treatment, 50 nM and 500 nM
T6 construct: effects of the compounds of the present disclosure on the expression of target proteins in cells; endogenous in cells; host or cells: human PBMCs (hPBMCs)
T6 sequence (Q13422 whole entry): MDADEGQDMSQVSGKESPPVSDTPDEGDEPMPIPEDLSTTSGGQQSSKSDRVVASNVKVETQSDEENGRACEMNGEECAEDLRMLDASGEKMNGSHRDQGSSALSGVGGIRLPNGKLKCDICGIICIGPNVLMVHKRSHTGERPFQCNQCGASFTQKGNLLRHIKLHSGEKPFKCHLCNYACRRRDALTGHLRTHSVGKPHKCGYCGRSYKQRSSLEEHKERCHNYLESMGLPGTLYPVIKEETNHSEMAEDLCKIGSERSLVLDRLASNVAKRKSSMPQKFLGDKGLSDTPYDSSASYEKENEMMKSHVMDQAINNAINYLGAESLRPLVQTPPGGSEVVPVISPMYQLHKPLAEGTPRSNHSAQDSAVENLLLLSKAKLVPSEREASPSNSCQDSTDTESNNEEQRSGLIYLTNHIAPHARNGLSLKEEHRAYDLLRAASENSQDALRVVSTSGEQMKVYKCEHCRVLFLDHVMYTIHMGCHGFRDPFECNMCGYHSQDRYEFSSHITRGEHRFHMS
T6 sequence (Q96SW2 whole entry): as the sequence (Q96SW2 whole entry) above
T6 sequence (Q16531 whole entry partner): as the sequence (Q16531 whole entry partner) above

O=C1CCN(N2Cc3cc(CN4CCN(c5c(F)cncc5Cl)CC4)ccc3C2=O)C(=O)N1 [GT-07171]
IKZF2 substrate protein remaining % (IKZF2): B ("B" is defined as 80%< substrate protein remaining %≤ 100%)
GSPT1 substrate protein remaining % (GSPT1): B ("B" is defined as 80%< substrate protein remaining %≤ 100%)
WEE1 substrate protein remaining % (WEE1): A ("A" is defined as 0% ≤ substrate protein remaining % ≤ 80%)
IKZF3 substrate protein remaining % (IKZF3): B ("B" is defined as 80%< substrate protein remaining %≤ 100%)
CK1α substrate protein remaining % (CK1α): B ("B" is defined as 80%< substrate protein remaining %≤ 100%)
IKZF1 substrate protein remaining % (IKZF1): B ("B" is defined as 80%< substrate protein remaining %≤ 100%)

O=C1CCN(N2C(=O)c3ccc(CN4CCN(c5ncccn5)CC4)cc3C2=O)C(=O)N1 [GT-07285, 2-(2,4-dioxotetrahydropyrimidin-1(2H)-yl)-5-((4-(pyrimidin-2-yl)piperazin-1-yl)methyl)isoindoline-1,3-dione]
IKZF2 substrate protein remaining % (IKZF2): B ("B" is defined as 80%< substrate protein remaining %≤ 100%)
GSPT1 substrate protein remaining % (GSPT1): B ("B" is defined as 80%< substrate protein remaining %≤ 100%)
WEE1 substrate protein remaining % (WEE1): A ("A" is defined as 0% ≤ substrate protein remaining % ≤ 80%)
IKZF3 substrate protein remaining % (IKZF3): B ("B" is defined as 80%< substrate protein remaining %≤ 100%)
CK1α substrate protein remaining % (CK1α): B ("B" is defined as 80%< substrate protein remaining %≤ 100%)
IKZF1 substrate protein remaining % (IKZF1): A ("A" is defined as 0% ≤ substrate protein remaining % ≤ 80%)

O=C1CCN(N2C(=O)c3ccc(CN4CCN(c5nccc(Cl)c5Br)CC4)cc3C2=O)C(=O)N1 [GT-07291, 5-((4-(3-bromo-4-chloropyridin-2-yl)piperazin-1-yl)methyl)-2-(2,4-dioxotetrahydropyrimidin-1(2H)-yl)isoindoline-1,3-dione]
IKZF2 substrate protein remaining % (IKZF2): B ("B" is defined as 80%< substrate protein remaining %≤ 100%)
GSPT1 substrate protein remaining % (GSPT1): A ("A" is defined as 0% ≤ substrate protein remaining % ≤ 80%)
WEE1 substrate protein remaining % (WEE1): A ("A" is defined as 0% ≤ substrate protein remaining % ≤ 80%)
IKZF3 substrate protein remaining % (IKZF3): B ("B" is defined as 80%< substrate protein remaining %≤ 100%)
CK1α substrate protein remaining % (CK1α): B ("B" is defined as 80%< substrate protein remaining %≤ 100%)
IKZF1 substrate protein remaining % (IKZF1): B ("B" is defined as 80%< substrate protein remaining %≤ 100%)

O=C1CCN(N2C(=O)c3ccc(CN4CCCN(C(c5ccccc5)c5ccccc5)CC4)cc3C2=O)C(=O)N1 [GT-07295, 5-((4-benzhydryl-1,4-diazepan-1-yl)methyl)-2-(2,4-dioxotetrahydropyrimidin-1(2H)-yl)isoindoline-1,3-dione]
IKZF2 substrate protein remaining % (IKZF2): B ("B" is defined as 80%< substrate protein remaining %≤ 100%)
GSPT1 substrate protein remaining % (GSPT1): A ("A" is defined as 0% ≤ substrate protein remaining % ≤ 80%)
WEE1 substrate protein remaining % (WEE1): B ("B" is defined as 80%< substrate protein remaining %≤ 100%)
IKZF3 substrate protein remaining % (IKZF3): B ("B" is defined as 80%< substrate protein remaining %≤ 100%)
CK1α substrate protein remaining % (CK1α): B ("B" is defined as 80%< substrate protein remaining %≤ 100%)
IKZF1 substrate protein remaining % (IKZF1): B ("B" is defined as 80%< substrate protein remaining %≤ 100%)

CC1(C)CCC(CN2CCN(Cc3ccc4c(c3)CN(N3CCC(=O)NC3=O)C4=O)C(C(F)(F)F)C2)=C(c2ccc(Cl)cc2)C1 (stereo not drawn) [GT-07296, 1-(5-((4-((4'-chloro-5,5-dimethyl-3,4,5,6-tetrahydro-[1,1'-biphenyl]-2-yl)methyl)-2-(trifluoromethyl)piperazin-1-yl)methyl)-1-oxoisoindolin-2-yl)dihydropyrimidine-2,4(1H,3H)-dione]
substrate protein remaining % IKZF2 (IKZF2): B (80%< substrate protein remaining %≤ 100%)
substrate protein remaining % GSPT1 (GSPT1): A (0% ≤ substrate protein remaining % ≤ 80%)
substrate protein remaining % WEE1 (WEE1): A (0% ≤ substrate protein remaining % ≤ 80%)
substrate protein remaining % IKZF3 (IKZF3): B (80%< substrate protein remaining %≤ 100%)
substrate protein remaining % CK1α (CK1α): A (0% ≤ substrate protein remaining % ≤ 80%)
substrate protein remaining % IKZF1 (IKZF1): A (0% ≤ substrate protein remaining % ≤ 80%)

O=C1CCN(N2Cc3cc(CN4CCN(CC5=C(c6ccc(F)cc6)CCCC5)CC4)ccc3C2=O)C(=O)N1 [GT-07297, 1-(5-((4-((4'-fluoro-3,4,5,6-tetrahydro-[1,1'-biphenyl]-2-yl)methyl)piperazin-1-yl)methyl)-1-oxoisoindolin-2-yl)dihydropyrimidine-2,4(1H,3H)-dione]
substrate protein remaining % IKZF2 (IKZF2): A (0% ≤ substrate protein remaining % ≤ 80%)
substrate protein remaining % GSPT1 (GSPT1): A (0% ≤ substrate protein remaining % ≤ 80%)
substrate protein remaining % WEE1 (WEE1): A (0% ≤ substrate protein remaining % ≤ 80%)
substrate protein remaining % IKZF3 (IKZF3): A (0% ≤ substrate protein remaining % ≤ 80%)
substrate protein remaining % CK1α (CK1α): A (0% ≤ substrate protein remaining % ≤ 80%)
substrate protein remaining % IKZF1 (IKZF1): B (80%< substrate protein remaining %≤ 100%)

CC1(C)CCC(CN2CC3CCC2CN3Cc2ccc3c(c2)C(=O)N(N2CCC(=O)NC2=O)C3=O)=C(c2ccc(Cl)cc2)C1 (stereo not drawn) [GT-07300, 5-((5-((4'-chloro-5,5-dimethyl-3,4,5,6-tetrahydro-[1,1'-biphenyl]-2-yl)methyl)-2,5-diazabicyclo[2.2.2]octan-2-yl)methyl)-2-(2,4-dioxotetrahydropyrimidin-1(2H)-yl)isoindoline-1,3-dione]
substrate protein remaining % IKZF2 (IKZF2): B (80%< substrate protein remaining %≤ 100%)
substrate protein remaining % GSPT1 (GSPT1): B (80%< substrate protein remaining %≤ 100%)
substrate protein remaining % WEE1 (WEE1): A (0% ≤ substrate protein remaining % ≤ 80%)
substrate protein remaining % IKZF3 (IKZF3): B (80%< substrate protein remaining %≤ 100%)
substrate protein remaining % CK1α (CK1α): B (80%< substrate protein remaining %≤ 100%)
substrate protein remaining % IKZF1 (IKZF1): B (80%< substrate protein remaining %≤ 100%)

CC1(C)CCC(CN2CCN(Cc3ccc4c(c3)C(=O)N(N3CCC(=O)NC3=O)C4=O)C(C(F)(F)F)C2)=C(c2ccc(Cl)cc2)C1 (stereo not drawn) [GT-07301, 5-((4-((4'-chloro-5,5-dimethyl-3,4,5,6-tetrahydro-[1,1'-biphenyl]-2-yl)methyl)-2-(trifluoromethyl)piperazin-1-yl)methyl)-2-(2,4-dioxotetrahydropyrimidin-1(2H)-yl)isoindoline-1,3-dione]
substrate protein remaining % IKZF2 (IKZF2): B (80%< substrate protein remaining %≤ 100%)
substrate protein remaining % GSPT1 (GSPT1): A (0% ≤ substrate protein remaining % ≤ 80%)
substrate protein remaining % WEE1 (WEE1): B (80%< substrate protein remaining %≤ 100%)
substrate protein remaining % IKZF3 (IKZF3): B (80%< substrate protein remaining %≤ 100%)
substrate protein remaining % CK1α (CK1α): B (80%< substrate protein remaining %≤ 100%)
substrate protein remaining % IKZF1 (IKZF1): B (80%< substrate protein remaining %≤ 100%)

O=C1CCN(N2C(=O)c3ccc(CN4CCN(CC5=C(c6ccc(F)cc6)CCCC5)CC4)cc3C2=O)C(=O)N1 [GT-07302, 2-(2,4-dioxotetrahydropyrimidin-1(2H)-yl)-5-((4-((4'-fluoro-3,4,5,6-tetrahydro-[1,1'-biphenyl]-2-yl)methyl)piperazin-1-yl)methyl)isoindoline-1,3-dione]
substrate protein remaining % IKZF2 (IKZF2): B (80%< substrate protein remaining %≤ 100%)
substrate protein remaining % GSPT1 (GSPT1): B (80%< substrate protein remaining %≤ 100%)
substrate protein remaining % WEE1 (WEE1): A (0% ≤ substrate protein remaining % ≤ 80%)
substrate protein remaining % IKZF3 (IKZF3): B (80%< substrate protein remaining %≤ 100%)
substrate protein remaining % CK1α (CK1α): B (80%< substrate protein remaining %≤ 100%)
substrate protein remaining % IKZF1 (IKZF1): B (80%< substrate protein remaining %≤ 100%)

CC1(C)CC(c2ccc(Cl)cc2)=C(CN2CCN(Cc3ccc4c(c3)C(=O)N(N3CCC(=O)NC3=O)C4=O)CC2)CO1 [GT-07304, 5-((4-((4-(4-chlorophenyl)-6,6-dimethyl-5,6-dihydro-2H-pyran-3-yl)methyl)piperazin-1-yl)methyl)-2-(2,4-dioxotetrahydropyrimidin-1(2H)-yl)isoindoline-1,3-dione]
substrate protein remaining % IKZF2 (IKZF2): B (80%< substrate protein remaining %≤ 100%)
substrate protein remaining % GSPT1 (GSPT1): A (0% ≤ substrate protein remaining % ≤ 80%)
substrate protein remaining % WEE1 (WEE1): B (80%< substrate protein remaining %≤ 100%)
substrate protein remaining % IKZF3 (IKZF3): B (80%< substrate protein remaining %≤ 100%)
substrate protein remaining % CK1α (CK1α): A (0% ≤ substrate protein remaining % ≤ 80%)
substrate protein remaining % IKZF1 (IKZF1): B (80%< substrate protein remaining %≤ 100%)

Cc1ccsc1C1CCN(Cc2ccc3c(c2)CN(N2CCC(=O)NC2=O)C3=O)CC1 [GT-07305, 1-(5-((4-(3-methylthiophen-2-yl)piperidin-1-yl)methyl)-1-oxoisoindolin-2-yl)dihydropyrimidine-2,4(1H,3H)-dione]
substrate protein remaining % IKZF2 (IKZF2): A (0% ≤ substrate protein remaining % ≤ 80%)
substrate protein remaining % GSPT1 (GSPT1): A (0% ≤ substrate protein remaining % ≤ 80%)
substrate protein remaining % WEE1 (WEE1): B (80%< substrate protein remaining %≤ 100%)
substrate protein remaining % IKZF3 (IKZF3): A (0% ≤ substrate protein remaining % ≤ 80%)
substrate protein remaining % CK1α (CK1α): B (80%< substrate protein remaining %≤ 100%)
substrate protein remaining % IKZF1 (IKZF1): B (80%< substrate protein remaining %≤ 100%)

Cc1ccsc1C1CCN(Cc2ccc3c(c2)C(=O)N(N2CCC(=O)NC2=O)C3=O)CC1 [GT-07306, 2-(2,4-dioxotetrahydropyrimidin-1(2H)-yl)-5-((4-(3-methylthiophen-2-yl)piperidin-1-yl)methyl)isoindoline-1,3-dione]
substrate protein remaining % IKZF2 (IKZF2): B (80%< substrate protein remaining %≤ 100%)
substrate protein remaining % GSPT1 (GSPT1): A (0% ≤ substrate protein remaining % ≤ 80%)
substrate protein remaining % WEE1 (WEE1): B (80%< substrate protein remaining %≤ 100%)
substrate protein remaining % IKZF3 (IKZF3): A (0% ≤ substrate protein remaining % ≤ 80%)
substrate protein remaining % CK1α (CK1α): B (80%< substrate protein remaining %≤ 100%)
substrate protein remaining % IKZF1 (IKZF1): B (80%< substrate protein remaining %≤ 100%)
